Reference: US20090081197A1 (Palatin Technologies, Inc., priority 2007, published 2009)
pEC50: −log10 of the molar value. Non-standard residues stand in square brackets, D forms with d. Residues, ends and D or L forms follow the SMILES beside them. *: point of attachment. dPhe(4-Cl) = N[C@H](Cc1ccc(Cl)cc1)C(=O)O; Ahp = NCCCCCCC(=O)O; Bn = c1ccc(C*)cc1

Legend:
MC4-R [1] = target: T1, MC4-R (Homo sapiens, UniProt P32245); assay: Assay for neutral antagonist, Schild analysis (pA2) against NDP-α-MSH; type: cell-based; set-up: expressed in transfected cells; host or cells: HEK-293; conditions: Schild analysis vs NDP-α-MSH; read-out: pA2 value as antagonist at MC4-R in a normal system (converted)
Procedure: Assay for Neutral Antagonist. […] These studies were carried out in HEK-293 cells expressing the MC4-R receptor. Cells were incubated with the compounds in the presence of the agonist NDP-α-MSH and the extent of antagonism was measured by the decrease in the level of intracellular cAMP. Screening the compounds for antagonists was done at a single concentration of NDP-α-MSH (1.0 nM) over a compound concentration range of 0.5-5000 nM.
Experimental details were similar to the analysis for agonistic activity described above. Briefly, cells were pre-incubated for 30 minutes with the test compounds at concentrations between 0.5 nM and 5000 nM. The cells were then stimulated with NDP-α-MSH at a concentration of 1 nM for 1 hour. For Schild analysis, the interactions were studied using at least 3 concentrations of the compounds, separated by a log unit, over a full range of the agonist (0.005-5000 nM). cAMP levels was measured in the cell lysates after appropriate dilution. Nonlinear regression analysis with Prism Graph-Pad software was used for Schild analysis and to obtain EC50 values. pA2 values were derived from the Schild plot of the data.

MC4-R [2] = target: T1, MC4-R; assay: cAMP agonist stimulation, low receptor density system (0.1 ng/mL doxycycline); conditions: 0.1 ng/mL doxycycline, low receptor density hMC4-R system; NDP-α-MSH maximal cAMP = 1.0
MC4-R [3] = target: T1, MC4-R; assay: cAMP agonist stimulation, high receptor density system (10 ng/mL doxycycline); conditions: for Efficacy/Intrinsic Activity: 10 ng/mL doxycycline, high receptor density hMC4-R system, NDP-α-MSH maximal cAMP = 1.0
[4] = IP (and IN) food intake, mice; type: in vivo; conditions: mouse, IP, 10 mg/kg, 4 hours
Outline: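 Male Sprague-Dawley rats dosed IV (0.5-3, up to 10 mg/kg) or IP (0.5-10, up to 50 mg/kg); male C57BL/6 mice dosed IP. Change in food intake and body weight over 24 h post-dose versus 1-week vehicle baseline, with 48 and 72 h reversal checks.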

T1 sequence (P32245 whole entry): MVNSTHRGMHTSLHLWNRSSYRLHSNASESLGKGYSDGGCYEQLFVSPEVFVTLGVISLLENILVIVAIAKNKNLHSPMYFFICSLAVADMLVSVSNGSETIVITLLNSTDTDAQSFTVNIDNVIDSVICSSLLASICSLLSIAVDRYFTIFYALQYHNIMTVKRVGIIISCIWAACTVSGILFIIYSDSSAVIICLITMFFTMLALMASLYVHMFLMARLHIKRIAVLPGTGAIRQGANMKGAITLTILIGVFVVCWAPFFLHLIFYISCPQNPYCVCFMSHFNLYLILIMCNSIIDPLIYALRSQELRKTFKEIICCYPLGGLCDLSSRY

N=C(N)NCCC[C@H](NC(=O)[C@@H](Cc1ccc(Cl)cc1)NC(=O)[C@H](COCc1ccccc1)NC(=O)CCCCCCN)C(=O)N[C@@H](Cc1c[nH]c2ccccc12)C(=O)N[C@@H](CC(=O)O)C(N)=O [Example 13, NH2—(CH2)6—C(═O)-Ser(Bzl)-D-Phe(4-Cl)-Arg-Trp-Asp-NH2] (H-[Ahp]S(Bn)[dPhe(4-Cl)]RWD-NH2)
Kb (MC4-R [1]): 50.1 nM
Efficacy/Intrinsic Activity (MC4-R [2]): None
pEC50 (MC4-R [3]): 7.47
Efficacy/Intrinsic Activity (MC4-R [3]): 0.72

N=C(N)NCCC[C@H]1CN(CCc2ccc3ccccc3c2)CCN1C(=O)[C@H](N)Cc1ccc(Cl)cc1Cl [Example 17, N-{3-[(S)-1-[(R)-2-Amino-3-(2,4-dichloro-phenyl)-propionyl]-4-(2-naphthalen-2-yl-ethyl)-piperazin-2-yl]-propyl}-guanidine]
maximal decrease in food intake [4]: 86%
Efficacy/Intrinsic Activity (MC4-R [2]): None
pEC50 (MC4-R [3]): 6.07
Efficacy/Intrinsic Activity (MC4-R [3]): 0.67
